Assay results as given in patent US8691867B2, “Use of benzo-fused heterocycle sulfamide derivatives for the treatment of substance abuse and addiction” (Janssen Pharmaceutica NV, priority 2005, dated 2014).
Values belong to the compound of their own block, whether it stands above or below them.

Experiments:
[1] = tested on: selectively-bred alcohol preferring rats; experiment: Alcohol Preferring Rats In Vivo Model (two-bottle choice); parameters: species or system rat; conditions: for 6 hr Ethanol (alcohol intake) / 6 hr Preference (alcohol preference): 6 h after administration; for 6 hr Ethanol (alcohol intake) / 6 hr Preference (alcohol preference) / 24 hr Ethanol (alcohol intake) / 24 hr Preference (alcohol preference): mean ± SEM; for 24 hr Ethanol (alcohol intake) / 24 hr Preference (alcohol preference): 24 h after administration
Method: Adult male selectively-bred alcohol preferring rats (which are known in the art to be useful for the study of the effect of test compounds on vountary alcohol intake) were grouped into three groups: vehicle and Compound #8 (50 and 100 mg/kg, po). Rats were housed individually in wire mesh cages under a constant room temperature of 22±1° C. and 12:12 light-dark cycle (8:00-20:00, dark). The animals were fed Agway Prolab Rat/Mouse/ Hamster 3000 formula and water ad libitum.
Alcohol intake was determined using the standard two-bottle choice method. Animals were first given free access to water in a graduated Richter tube for 2 days. Then they were given access to only a solution of 10% (v/v) ethanol for 3 consecutive days. During this period animals became accustomed to drinking from Richter tubes and to the taste and pharmacological effects of alcohol. Thereafter, they were given free access to both water and a solution of 10% alcohol for at least 4 consecutive weeks and throughout the study period. Rats had free access to food. Water and alcohol intake were recorded at 4, 6 and 24 hours after the treatment, whereas food intake was measured at 24 hour. Animals' body weight was measured every day.
After establishment of a stable baseline for alcohol, food, and water intake, rats were administered either vehicle or Compound #8 via oral gavage using a cross-over design with random assignment. To be able to compare the efficacy of these compounds on alcohol intake with an established FDA-approved drug, naltrexone, was included as a positive control. Same rats were given an oral dose of naltrexone (20mg/kg). The interval between treatments was at least 3 days. Alcohol and water intake were recorded 4, 6 and 24 h after the drug administration and food intake was recorded at 24 hr. A total of 8-10 animals per group were used.
The results below are presented as means ±SEM. Alcohol intake (g/kg) was calculated by multiplying the volume of alcohol consumed in ml by 10% and 0.7893 (ethanol density)/body weight in kg. Alcohol preference, expressed as percentage, was calculated as follows: (volume of alcohol consumed in ml/total fluid intake in ml)×100 (Rezvani and Grady, 1994; Rezvani et al., 1997). Statistical differences between drug-treated and control groups were determined by using ANOVA and Turkey Student's t test for multiple comparison.

Structure (SMILES): O=C1CC[C@@]2(O)[C@H]3Cc4ccc(O)c5c4[C@@]2(CCN3CC2CC2)[C@H]1O5 [Naltrexone, naltrexone, reference compound]
6 hr Ethanol (alcohol intake) ([1]; 20 mg/kg oral): 0.77 ± 0.24 g/kg
6 hr Preference (alcohol preference) ([1]; 20 mg/kg oral): 64 ± 12%
24 hr Ethanol (alcohol intake) ([1]; 20 mg/kg oral): 4.48 ± 0.57 g/kg
24 hr Preference (alcohol preference) ([1]; 20 mg/kg oral): 76 ± 9%

melting point: 97 to 98 °C
Structure (SMILES): CN(CC1COc2ccccc2O1)S(N)(=O)=O (racemic)

Structure (SMILES): NS(=O)(=O)NC[C@H]1COc2cc(Cl)ccc2O1 [Compound #8, (2S)-(−)-N-(6-Chloro-2,3-dihydro-benzo[1,4]dioxin-2-ylmethyl)-sulfamide]
6 hr Ethanol (alcohol intake) ([1]; 50 mg/kg po): 1.28 ± 0.25 g/kg
6 hr Preference (alcohol preference) ([1]; 50 mg/kg po): 67 ± 11%
24 hr Ethanol (alcohol intake) ([1]; 50 mg/kg po): 4.79 ± 0.5 g/kg
24 hr Preference (alcohol preference) ([1]; 50 mg/kg po): 77 ± 7%
6 hr Ethanol (alcohol intake) ([1]; 100 mg/kg po): 1.33 ± 0.17 g/kg
6 hr Preference (alcohol preference) ([1]; 100 mg/kg po): 75 ± 8%
24 hr Ethanol (alcohol intake) ([1]; 100 mg/kg po): 4.35 ± 0.66 g/kg
24 hr Preference (alcohol preference) ([1]; 100 mg/kg po): 70 ± 9%
effect on ethanol consumption ([1]; alcohol-preferring rats, 6 h post-dosing, 50 and 100 mg/kg dose): decreased ethanol consumption

melting point: 101 to 103 °C
Structure (SMILES): NS(=O)(=O)NCCC1COc2ccccc2O1 (stereo not drawn)

melting point: 76 to 78 °C
Structure (SMILES): CN(C)S(=O)(=O)NCC1COc2ccccc2O1 (racemic)

melting point: 100 to 101 °C
Structure (SMILES): NS(=O)(=O)NCC1CCc2ccccc2O1 (stereo not drawn)

melting point: 119 to 121 °C
Structure (SMILES): NS(=O)(=O)NC[C@H]1COc2cc(Cl)c(Cl)cc2O1
